Measured values as given in paper PMC2248166, “Quantitative peptide binding motifs for 19 human and mouse MHC class I molecules derived using positional scanning combinatorial peptide libraries” (Immunome Research, 2008).
Where a SMILES comes first, the peptide text is derived from it.

target: HLA B*1503 (Homo sapiens, UniProt P01889, A329T/A93T/A95T/C349S/D201E/D98Y/E187L/E204Q/K202T/N87E/Q94N/R155S/R180L/S121R/S35A/V306I/V36M/Y140S/Y91S); assay: biochemical; assay type: binding

Structure (SMILES)	IC50
CSCC[C@H](NC(=O)[C@@H](N)CCCNC(=N)N)C(=O)N[C@@H](Cc1ccccc1)C(=O)NCC(=O)N[C@@H](CO)C(=O)N[C@@H](CCCCN)C(=O)N1CCC[C@H]1C(=O)N[C@H](C(=O)N[C@@H](Cc1ccccc1)C(=O)O)[C@@H](C)O [3102.1247] (H-RMFGSKPTF-OH)	0.21 nM
CC[C@H](C)[C@H](N)C(=O)N[C@@H](CCCCN)C(=O)N[C@H](C(=O)N[C@H](C(=O)N[C@@H](C)C(=O)N[C@@H](C)C(=O)N[C@@H](CO)C(=O)N1CCC[C@H]1C(=O)N[C@@H](CCSC)C(=O)O)[C@@H](C)O)C(C)C [3102.1251] (H-IKVTAASPM-OH)	2.8 nM
CC[C@H](C)[C@H](N)C(=O)N[C@@H](CCC(N)=O)C(=O)N[C@H](C(=O)N[C@@H](CC(C)C)C(=O)N[C@@H](CC(N)=O)C(=O)NCC(=O)N[C@@H](CCCCN)C(=O)N[C@@H](Cc1c[nH]cn1)C(=O)N[C@@H](Cc1ccccc1)C(=O)O)[C@@H](C)O [3102.1105] (H-IQTLNGKHF-OH)	11 nM
CC(C)C[C@H](NC(=O)[C@@H](NC(=O)[C@H](CO)NC(=O)[C@H](C)NC(=O)[C@H](Cc1ccc(O)cc1)NC(=O)[C@H](CCC(N)=O)NC(=O)[C@H](C)N)[C@@H](C)O)C(=O)N[C@@H](CO)C(=O)N[C@H](C(=O)O)C(C)C [3102.1314] (H-AQYASTLSV-OH)	0.16 nM
CC[C@H](C)[C@H](N)C(=O)N[C@@H](CCCCN)C(=O)N[C@@H](CO)C(=O)N[C@@H](Cc1ccc(O)cc1)C(=O)N[C@H](C(=O)N[C@H](C(=O)N[C@@H](CCCNC(=N)N)C(=O)N[C@H](C(=O)N[C@@H](Cc1ccccc1)C(=O)O)C(C)C)[C@@H](C)CC)[C@@H](C)O [3102.1137] (H-IKSYTIRVF-OH)	1.6 nM
CC[C@H](C)[C@H](NC(=O)[C@H](CO)NC(=O)[C@H](Cc1ccc(O)cc1)NC(=O)[C@@H](NC(=O)[C@H](C)NC(=O)[C@H](Cc1c[nH]cn1)NC(=O)[C@@H](N)CC(C)C)C(C)C)C(=O)N[C@H](C(=O)N[C@@H](Cc1ccccc1)C(=O)O)C(C)C [3102.1145] (H-LHAVYSIVF-OH)	8.8 nM
CSCC[C@H](NC(=O)[C@H](C)NC(=O)[C@H](CC(C)C)NC(=O)[C@H](CO)NC(=O)[C@H](CCCCN)NC(=O)[C@@H](N)CCSC)C(=O)N[C@H](C(=O)N[C@@H](C)C(=O)N[C@@H](Cc1ccccc1)C(=O)O)[C@@H](C)O [3102.1092] (H-MKSLAMTAF-OH)	0.18 nM
CSCC[C@H](N)C(=O)N[C@@H](CCCCN)C(=O)N[C@@H](Cc1ccc(O)cc1)C(=O)N[C@@H](CS)C(=O)N[C@@H](CO)C(=O)N[C@@H](Cc1ccc(O)cc1)C(=O)N[C@@H](CCC(N)=O)C(=O)N[C@@H](CO)C(=O)N[C@@H](Cc1ccccc1)C(=O)O [3102.1287] (H-MKYCSYQSF-OH)	1.6 nM
CC[C@H](C)[C@H](N)C(=O)N[C@@H](CC(C)C)C(=O)N[C@@H](Cc1c[nH]cn1)C(=O)N[C@@H](CO)C(=O)N[C@@H](CC(=O)O)C(=O)N[C@@H](Cc1ccc(O)cc1)C(=O)N[C@@H](CCC(N)=O)C(=O)N[C@@H](CC(C)C)C(=O)N[C@@H](Cc1ccccc1)C(=O)O [3102.1141] (H-ILHSDYQLF-OH)	2.4 nM
CC[C@H](C)[C@H](NC(=O)[C@H](CCCCN)NC(=O)[C@@H](N)CCSC)C(=O)N[C@H](C(=O)N[C@@H](CCCNC(=N)N)C(=O)N1CCC[C@H]1C(=O)N[C@@H](CCCNC(=N)N)C(=O)N[C@@H](Cc1c[nH]cn1)C(=O)N[C@@H](Cc1ccccc1)C(=O)O)[C@@H](C)O [3102.1200] (H-MKITRPRHF-OH)	1 nM
CC(C)C[C@H](NC(=O)[C@H](CC(N)=O)NC(=O)[C@H](C)NC(=O)[C@H](CO)NC(=O)[C@H](CC(C)C)NC(=O)[C@H](CCCNC(=N)N)NC(=O)[C@H](CC(C)C)NC(=O)[C@@H](N)Cc1ccccc1)C(=O)N[C@@H](Cc1ccccc1)C(=O)O [3102.1266] (H-FLRLSANLF-OH)	0.12 nM
CC(C)C[C@H](N)C(=O)N[C@@H](CCCCN)C(=O)N[C@@H](CO)C(=O)N[C@@H](CC(N)=O)C(=O)N[C@@H](C)C(=O)N[C@@H](CC(=O)O)C(=O)N[C@@H](Cc1c[nH]c2ccccc12)C(=O)N[C@@H](Cc1ccccc1)C(=O)N[C@@H](Cc1ccccc1)C(=O)O [3102.1304] (H-LKSNADWFF-OH)	10 nM
CC(C)[C@H](NC(=O)[C@H](Cc1ccc(O)cc1)NC(=O)[C@H](CCCNC(=N)N)NC(=O)[C@@H](NC(=O)[C@H](CC(N)=O)NC(=O)[C@H](Cc1ccc(O)cc1)NC(=O)[C@H](CCCCN)NC(=O)[C@@H](N)CCCCN)C(C)C)C(=O)N[C@@H](Cc1ccccc1)C(=O)O [3102.1267] (H-KKYNVRYVF-OH)	1 nM
CC[C@H](C)[C@H](NC(=O)[C@H](CCCCN)NC(=O)[C@@H](N)CCCNC(=N)N)C(=O)N[C@@H](CO)C(=O)N[C@@H](CO)C(=O)N[C@@H](CCCCN)C(=O)N[C@@H](CC(N)=O)C(=O)N[C@@H](CO)C(=O)N[C@@H](CCSC)C(=O)O [3102.1080] (H-RKISSKNSM-OH)	0.11 nM
CC(C)[C@H](NC(=O)[C@H](CC(=O)O)NC(=O)[C@H](CCC(=O)O)NC(=O)[C@@H](NC(=O)[C@H](CO)NC(=O)[C@@H](N)CCCCN)C(C)C)C(=O)N[C@@H](CO)C(=O)N[C@@H](C)C(=O)N[C@@H](Cc1ccccc1)C(=O)O [3102.1062] (H-KSVEDVSAF-OH)	14 nM
CC[C@H](C)[C@H](NC(=O)[C@@H]1CCCN1C(=O)CNC(=O)[C@H](Cc1ccccc1)NC(=O)[C@H](Cc1ccccc1)NC(=O)[C@@H](NC(=O)[C@H](CCCCN)NC(=O)[C@@H](N)CO)C(C)C)C(=O)N[C@@H](Cc1ccc(O)cc1)C(=O)O [3102.1134] (H-SKVFFGPIY-OH)	1 nM
CC[C@H](C)[C@H](N)C(=O)N[C@@H](CCC(N)=O)C(=O)N[C@@H](Cc1ccc(O)cc1)C(=O)N[C@@H](CC(=O)O)C(=O)N[C@@H](CCCNC(=N)N)C(=O)N[C@@H](CCCNC(=N)N)C(=O)N[C@@H](CO)C(=O)N[C@@H](Cc1ccccc1)C(=O)N[C@@H](Cc1ccccc1)C(=O)O [3102.1327] (H-IQYDRRSFF-OH)	0.15 nM
CC[C@H](C)[C@H](NC(=O)[C@H](CO)NC(=O)[C@@H](N)Cc1ccccc1)C(=O)N[C@@H](CC(C)C)C(=O)N[C@@H](Cc1ccccc1)C(=O)N[C@@H](CO)C(=O)N[C@@H](CC(N)=O)C(=O)N[C@@H](CC(N)=O)C(=O)N[C@@H](Cc1ccccc1)C(=O)O [3102.1156] (H-FSILFSNNF-OH)	30 nM
CC(C)C[C@H](NC(=O)[C@H](C)NC(=O)[C@H](CO)NC(=O)[C@@H](N)Cc1ccccc1)C(=O)N1CCC[C@H]1C(=O)N[C@H](C(=O)N[C@@H](CC(N)=O)C(=O)N[C@@H](CCC(=O)O)C(=O)N[C@@H](Cc1ccccc1)C(=O)O)[C@@H](C)O [3102.1337] (H-FSALPTNEF-OH)	0.13 nM
CC[C@H](C)[C@H](NC(=O)[C@H](CO)NC(=O)[C@@H](NC(=O)[C@H](Cc1ccccc1)NC(=O)CNC(=O)[C@@H](NC(=O)[C@@H](NC(=O)[C@H](CCCCN)NC(=O)[C@@H](N)CCCCN)C(C)C)[C@@H](C)CC)C(C)C)C(=O)O [3102.1208] (H-KKVIGFVSI-OH)	7.5 nM
CC[C@H](C)[C@H](NC(=O)[C@H](CO)NC(=O)[C@H](CCCNC(=N)N)NC(=O)[C@H](CCCNC(=N)N)NC(=O)[C@@H](NC(=O)[C@@H](NC(=O)[C@@H](NC(=O)[C@H](CCCCN)NC(=O)[C@@H](N)Cc1ccccc1)C(C)C)[C@@H](C)O)[C@@H](C)O)C(=O)O [3102.1295] (H-FKVTTRRSI-OH)	4.6 nM
CC(C)C[C@H](NC(=O)[C@H](CO)NC(=O)[C@H](CO)NC(=O)[C@@H](NC(=O)[C@H](CCC(=O)O)NC(=O)[C@@H](NC(=O)[C@H](CO)NC(=O)[C@H](CCCCN)NC(=O)[C@@H](N)CC(C)C)C(C)C)[C@@H](C)O)C(=O)O [3102.1056] (H-LKSVETSSL-OH)	3.8 nM
CSCC[C@H](NC(=O)[C@H](Cc1ccc(O)cc1)NC(=O)[C@H](CC(N)=O)NC(=O)[C@H](Cc1ccc(O)cc1)NC(=O)[C@H](CO)NC(=O)[C@H](CCCCN)NC(=O)[C@@H](NC(=O)[C@H](CCCCN)NC(=O)[C@@H](N)CCCNC(=N)N)C(C)C)C(=O)O [3102.1285] (H-RKVKSYNYM-OH)	2.6 nM
CC[C@H](C)[C@H](NC(=O)[C@@H](NC(=O)[C@@H]1CCCN1C(=O)[C@H](CCC(=O)O)NC(=O)[C@H](CO)NC(=O)[C@H](CO)NC(=O)[C@H](CCSC)NC(=O)[C@@H](N)Cc1ccc(O)cc1)[C@@H](C)CC)C(=O)N[C@@H](Cc1ccccc1)C(=O)O [3102.1094] (H-YMSSEPIIF-OH)	0.3 nM
CC[C@H](C)[C@H](NC(=O)[C@@H](NC(=O)[C@H](CCC(=O)O)NC(=O)[C@H](CCC(=O)O)NC(=O)[C@H](CO)NC(=O)[C@H](CCSC)NC(=O)[C@@H](N)CC(C)C)[C@@H](C)O)C(=O)N[C@@H](CC(=O)O)C(=O)N[C@@H](Cc1ccccc1)C(=O)O [3102.1106] (H-LMSEETIDF-OH)	12 nM
CSCC[C@H](NC(=O)[C@H](CO)NC(=O)[C@H](CCCNC(=N)N)NC(=O)[C@@H]1CCCN1C(=O)[C@H](Cc1ccccc1)NC(=O)[C@H](CCCCN)NC(=O)[C@H](CO)NC(=O)[C@H](CCCCN)NC(=O)[C@H](C)N)C(=O)O [3102.1076] (H-AKSKFPRSM-OH)	0.26 nM
CC[C@H](C)[C@H](N)C(=O)N[C@@H](CCCCN)C(=O)N[C@@H](CCCNC(=N)N)C(=O)N[C@H](C(=O)N[C@@H](CO)C(=O)N[C@@H](CO)C(=O)N[C@@H](CO)C(=O)N[C@@H](CC(=O)O)C(=O)N[C@@H](Cc1ccccc1)C(=O)O)C(C)C [3102.1239] (H-IKRVSSSDF-OH)	1.8 nM
CC[C@H](C)[C@H](NC(=O)[C@H](CO)NC(=O)[C@H](CC(C)C)NC(=O)[C@@H](NC(=O)[C@H](CCCCN)NC(=O)[C@@H](N)Cc1c[nH]c2ccccc12)C(C)C)C(=O)N[C@@H](CCSC)C(=O)N[C@@H](C)C(=O)N[C@@H](Cc1ccccc1)C(=O)O [3102.1300] (H-WKVLSIMAF-OH)	9.3 nM
CC(C)C[C@H](NC(=O)[C@H](CC(C)C)NC(=O)[C@H](CCCNC(=N)N)NC(=O)[C@H](CCCNC(=N)N)NC(=O)[C@@H](NC(=O)[C@H](Cc1c[nH]cn1)NC(=O)[C@@H](N)Cc1ccccc1)C(C)C)C(=O)N[C@@H](CCCCN)C(=O)N[C@@H](Cc1ccccc1)C(=O)O [3102.1241] (H-FHVRRLLKF-OH)	21 nM
